In PMC11167047 (Cell Death Discovery, 2024):

Assays:
Experiment in all cases: kinome screen (33PanQinase)
Assay type in all cases: biochemical
SRPK1 = target: T1, SRPK1 (Homo sapiens, UniProt Q96SB4)
T1 construct: purchased Reaction Biology Europe GmbH (formerly ProQinase)
Protocol: (§1) The Kinome Screening was performed by Reaction Biology Europe GmbH (http://reactionbiology.com; Freiburg i. Br., Germany).

CDK2/CycE1 = target: T2, CDK2/CycE1 (Homo sapiens, UniProt P24941)
T2 construct: purchased Reaction Biology Europe GmbH (formerly ProQinase)
Protocol: as §1

DYRK1B = target: T3, DYRK1B (Homo sapiens, UniProt Q9Y463)
T3 construct: purchased Reaction Biology Europe GmbH (formerly ProQinase)
T3 sequence (Q9Y463 whole entry): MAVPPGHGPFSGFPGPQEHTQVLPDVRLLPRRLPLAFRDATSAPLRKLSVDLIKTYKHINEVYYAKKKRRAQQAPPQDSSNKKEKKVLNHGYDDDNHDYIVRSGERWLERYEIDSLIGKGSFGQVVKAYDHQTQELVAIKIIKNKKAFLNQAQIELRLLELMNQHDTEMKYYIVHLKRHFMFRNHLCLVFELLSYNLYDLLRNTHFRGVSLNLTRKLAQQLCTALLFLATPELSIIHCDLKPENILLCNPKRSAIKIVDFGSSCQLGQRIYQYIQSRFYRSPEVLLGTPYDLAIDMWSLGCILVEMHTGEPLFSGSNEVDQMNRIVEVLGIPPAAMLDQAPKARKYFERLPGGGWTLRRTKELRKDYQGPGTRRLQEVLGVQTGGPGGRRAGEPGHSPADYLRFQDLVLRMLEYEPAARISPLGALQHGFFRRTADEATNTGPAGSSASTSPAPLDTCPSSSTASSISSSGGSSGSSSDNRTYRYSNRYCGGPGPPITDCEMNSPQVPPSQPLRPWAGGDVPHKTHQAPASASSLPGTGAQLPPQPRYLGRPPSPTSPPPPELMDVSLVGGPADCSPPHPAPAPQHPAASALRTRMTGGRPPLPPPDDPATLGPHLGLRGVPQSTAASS
Protocol: as §1

CAMK2D = target: T4, CAMK2D (Homo sapiens, UniProt Q13557)
T4 construct: purchased Reaction Biology Europe GmbH (formerly ProQinase)
Protocol: as §1

MEKK2 = target: T5, MEKK2 (Homo sapiens, UniProt Q9Y2U5)
T5 construct: purchased Reaction Biology Europe GmbH (formerly ProQinase)
T5 sequence (Q9Y2U5 1-619): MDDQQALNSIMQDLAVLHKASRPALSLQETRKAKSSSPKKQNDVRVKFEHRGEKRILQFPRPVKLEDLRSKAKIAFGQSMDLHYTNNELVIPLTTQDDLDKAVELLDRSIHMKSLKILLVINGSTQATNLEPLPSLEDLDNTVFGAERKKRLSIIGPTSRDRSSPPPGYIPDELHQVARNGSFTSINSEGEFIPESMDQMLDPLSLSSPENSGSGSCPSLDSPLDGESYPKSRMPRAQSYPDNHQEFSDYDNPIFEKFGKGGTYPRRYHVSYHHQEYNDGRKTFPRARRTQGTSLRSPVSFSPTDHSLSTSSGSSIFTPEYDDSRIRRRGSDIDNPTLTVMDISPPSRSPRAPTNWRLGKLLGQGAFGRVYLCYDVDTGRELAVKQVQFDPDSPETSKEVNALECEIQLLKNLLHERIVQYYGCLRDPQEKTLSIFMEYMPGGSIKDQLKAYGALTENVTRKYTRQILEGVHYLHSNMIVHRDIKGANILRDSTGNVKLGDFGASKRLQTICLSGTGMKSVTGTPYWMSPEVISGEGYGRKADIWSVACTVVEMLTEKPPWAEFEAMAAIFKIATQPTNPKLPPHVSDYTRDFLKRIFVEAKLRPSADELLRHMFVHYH
Protocol: as §1

CDK4/CycD2 = target: T6, CDK4/CycD2 (Homo sapiens, UniProt P11802)
T6 construct: purchased Reaction Biology Europe GmbH (formerly ProQinase)
T6 sequence (P11802 whole entry): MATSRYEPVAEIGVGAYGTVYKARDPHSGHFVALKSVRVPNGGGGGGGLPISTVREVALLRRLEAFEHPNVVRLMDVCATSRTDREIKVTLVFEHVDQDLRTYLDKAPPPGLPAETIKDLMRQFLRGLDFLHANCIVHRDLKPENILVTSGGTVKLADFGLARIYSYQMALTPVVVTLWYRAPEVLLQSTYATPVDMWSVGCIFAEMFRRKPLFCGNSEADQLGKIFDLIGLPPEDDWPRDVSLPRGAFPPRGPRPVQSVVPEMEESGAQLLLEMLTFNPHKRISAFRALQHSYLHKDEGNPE
T6 sequence (P30279 whole entry partner): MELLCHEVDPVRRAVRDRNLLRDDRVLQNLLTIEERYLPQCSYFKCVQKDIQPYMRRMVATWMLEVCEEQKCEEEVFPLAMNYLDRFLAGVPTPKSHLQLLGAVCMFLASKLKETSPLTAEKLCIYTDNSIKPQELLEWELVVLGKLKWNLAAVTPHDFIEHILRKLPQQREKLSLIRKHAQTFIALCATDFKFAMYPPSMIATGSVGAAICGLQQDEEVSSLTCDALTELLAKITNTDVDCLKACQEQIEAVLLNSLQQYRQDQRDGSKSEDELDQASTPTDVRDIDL
Protocol: as §1

TAOK2 = target: T7, TAOK2 (Homo sapiens, UniProt Q9UL54)
T7 construct: purchased Reaction Biology Europe GmbH (formerly ProQinase)
T7 sequence (Q9UL54 1-1235): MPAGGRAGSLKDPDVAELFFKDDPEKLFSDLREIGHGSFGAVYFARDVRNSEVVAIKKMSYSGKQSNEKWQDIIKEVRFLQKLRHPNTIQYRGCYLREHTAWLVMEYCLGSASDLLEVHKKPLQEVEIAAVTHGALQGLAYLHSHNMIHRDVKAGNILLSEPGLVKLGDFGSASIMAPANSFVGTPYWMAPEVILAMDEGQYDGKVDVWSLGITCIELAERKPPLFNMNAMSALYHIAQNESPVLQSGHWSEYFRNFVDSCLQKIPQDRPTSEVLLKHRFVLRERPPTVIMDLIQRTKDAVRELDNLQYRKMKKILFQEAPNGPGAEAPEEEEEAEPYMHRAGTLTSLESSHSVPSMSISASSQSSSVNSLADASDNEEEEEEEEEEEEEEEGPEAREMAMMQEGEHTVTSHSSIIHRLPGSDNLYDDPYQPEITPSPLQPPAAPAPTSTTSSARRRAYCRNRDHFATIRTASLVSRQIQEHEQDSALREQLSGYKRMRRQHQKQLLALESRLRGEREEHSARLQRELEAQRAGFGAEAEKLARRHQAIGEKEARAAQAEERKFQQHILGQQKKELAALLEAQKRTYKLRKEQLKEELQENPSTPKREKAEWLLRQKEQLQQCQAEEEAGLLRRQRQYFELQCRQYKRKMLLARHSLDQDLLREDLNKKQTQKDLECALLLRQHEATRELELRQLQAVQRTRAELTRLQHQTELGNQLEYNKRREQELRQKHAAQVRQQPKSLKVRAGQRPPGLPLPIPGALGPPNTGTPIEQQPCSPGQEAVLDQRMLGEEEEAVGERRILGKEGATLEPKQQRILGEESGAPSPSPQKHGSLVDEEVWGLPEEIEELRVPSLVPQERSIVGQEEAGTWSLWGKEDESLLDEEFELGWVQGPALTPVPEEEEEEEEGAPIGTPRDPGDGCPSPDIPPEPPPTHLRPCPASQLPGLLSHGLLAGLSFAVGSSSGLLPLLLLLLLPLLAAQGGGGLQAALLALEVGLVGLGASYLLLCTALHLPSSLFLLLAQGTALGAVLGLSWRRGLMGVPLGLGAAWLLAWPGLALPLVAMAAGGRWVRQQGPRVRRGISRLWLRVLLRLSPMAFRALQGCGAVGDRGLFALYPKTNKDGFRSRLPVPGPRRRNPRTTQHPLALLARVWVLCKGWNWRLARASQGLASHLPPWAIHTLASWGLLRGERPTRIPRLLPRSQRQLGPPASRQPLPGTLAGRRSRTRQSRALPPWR
Protocol: as §1

MST4 = target: T8, MST4 (Homo sapiens, UniProt Q9P289)
T8 construct: purchased Reaction Biology Europe GmbH (formerly ProQinase)
T8 sequence (Q9P289 whole entry): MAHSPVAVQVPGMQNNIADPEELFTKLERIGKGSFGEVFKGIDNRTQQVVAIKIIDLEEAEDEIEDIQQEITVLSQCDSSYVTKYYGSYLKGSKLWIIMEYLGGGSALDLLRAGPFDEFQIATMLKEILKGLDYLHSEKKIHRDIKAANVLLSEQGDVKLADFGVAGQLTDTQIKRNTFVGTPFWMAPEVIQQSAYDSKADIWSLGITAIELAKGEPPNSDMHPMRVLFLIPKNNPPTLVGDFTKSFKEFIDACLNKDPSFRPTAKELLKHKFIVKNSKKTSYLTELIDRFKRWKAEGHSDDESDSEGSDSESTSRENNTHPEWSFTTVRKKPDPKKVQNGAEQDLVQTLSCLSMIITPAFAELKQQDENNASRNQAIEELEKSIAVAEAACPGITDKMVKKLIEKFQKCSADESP
Protocol: as §1

JAK1 = target: T9, JAK1 (Homo sapiens, UniProt P23458)
T9 construct: purchased Reaction Biology Europe GmbH (formerly ProQinase)
T9 sequence (P23458 whole entry): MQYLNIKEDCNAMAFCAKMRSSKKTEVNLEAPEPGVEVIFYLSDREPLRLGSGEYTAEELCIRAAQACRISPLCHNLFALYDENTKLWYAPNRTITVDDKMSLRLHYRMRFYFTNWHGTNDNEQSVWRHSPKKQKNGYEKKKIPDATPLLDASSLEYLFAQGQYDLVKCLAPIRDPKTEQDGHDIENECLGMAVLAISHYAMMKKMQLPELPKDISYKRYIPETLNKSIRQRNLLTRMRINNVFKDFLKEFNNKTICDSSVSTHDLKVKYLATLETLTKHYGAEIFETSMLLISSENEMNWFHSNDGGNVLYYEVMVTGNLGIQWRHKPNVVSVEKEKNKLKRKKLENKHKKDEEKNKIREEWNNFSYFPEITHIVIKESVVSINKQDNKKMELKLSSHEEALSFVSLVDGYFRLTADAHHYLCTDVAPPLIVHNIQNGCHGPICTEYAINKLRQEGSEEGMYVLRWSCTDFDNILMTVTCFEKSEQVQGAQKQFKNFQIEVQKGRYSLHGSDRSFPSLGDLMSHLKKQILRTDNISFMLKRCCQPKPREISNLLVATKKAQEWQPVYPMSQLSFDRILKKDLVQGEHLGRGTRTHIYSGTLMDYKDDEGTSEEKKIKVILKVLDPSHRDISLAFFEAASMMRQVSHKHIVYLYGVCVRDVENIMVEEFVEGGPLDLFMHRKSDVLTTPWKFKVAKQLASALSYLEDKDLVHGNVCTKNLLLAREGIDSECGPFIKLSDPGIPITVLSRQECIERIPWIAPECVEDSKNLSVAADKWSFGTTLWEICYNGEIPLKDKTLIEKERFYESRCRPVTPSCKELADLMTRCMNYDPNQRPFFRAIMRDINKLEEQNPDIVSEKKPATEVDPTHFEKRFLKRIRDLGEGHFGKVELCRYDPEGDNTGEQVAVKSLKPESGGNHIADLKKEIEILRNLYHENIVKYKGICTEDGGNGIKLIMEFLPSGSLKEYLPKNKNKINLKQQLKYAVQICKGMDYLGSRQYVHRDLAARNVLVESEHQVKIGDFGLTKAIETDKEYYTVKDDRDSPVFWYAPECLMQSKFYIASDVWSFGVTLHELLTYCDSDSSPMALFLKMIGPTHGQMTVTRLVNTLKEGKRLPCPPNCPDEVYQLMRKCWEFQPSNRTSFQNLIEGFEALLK
Protocol: as §1

RPS6KA1 = target: T10, RPS6KA1 (Homo sapiens, UniProt Q15418)
T10 construct: purchased Reaction Biology Europe GmbH (formerly ProQinase)
T10 sequence (Q15418 whole entry): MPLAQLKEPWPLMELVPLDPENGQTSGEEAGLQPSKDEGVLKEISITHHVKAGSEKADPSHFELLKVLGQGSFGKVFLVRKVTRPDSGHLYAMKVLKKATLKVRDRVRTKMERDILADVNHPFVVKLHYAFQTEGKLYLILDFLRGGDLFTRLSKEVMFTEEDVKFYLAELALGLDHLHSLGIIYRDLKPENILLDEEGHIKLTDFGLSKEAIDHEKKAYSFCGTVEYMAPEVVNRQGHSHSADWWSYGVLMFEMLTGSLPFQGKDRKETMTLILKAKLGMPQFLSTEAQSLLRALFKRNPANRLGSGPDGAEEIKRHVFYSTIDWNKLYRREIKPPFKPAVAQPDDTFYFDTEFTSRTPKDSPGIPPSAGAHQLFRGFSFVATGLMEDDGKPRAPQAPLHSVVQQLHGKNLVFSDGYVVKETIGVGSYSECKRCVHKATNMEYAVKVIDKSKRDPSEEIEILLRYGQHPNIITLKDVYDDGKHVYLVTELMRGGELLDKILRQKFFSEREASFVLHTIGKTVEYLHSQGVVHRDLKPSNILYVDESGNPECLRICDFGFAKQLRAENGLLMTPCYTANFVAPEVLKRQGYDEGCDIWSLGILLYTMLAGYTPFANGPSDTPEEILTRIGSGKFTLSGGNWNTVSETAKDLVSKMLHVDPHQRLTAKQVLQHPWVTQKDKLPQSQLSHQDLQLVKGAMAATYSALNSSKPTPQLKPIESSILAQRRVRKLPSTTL
Protocol: as §1

STK33 = target: T11, STK33 (Homo sapiens, UniProt Q9BYT3)
T11 construct: purchased Reaction Biology Europe GmbH (formerly ProQinase)
T11 sequence (Q9BYT3 whole entry): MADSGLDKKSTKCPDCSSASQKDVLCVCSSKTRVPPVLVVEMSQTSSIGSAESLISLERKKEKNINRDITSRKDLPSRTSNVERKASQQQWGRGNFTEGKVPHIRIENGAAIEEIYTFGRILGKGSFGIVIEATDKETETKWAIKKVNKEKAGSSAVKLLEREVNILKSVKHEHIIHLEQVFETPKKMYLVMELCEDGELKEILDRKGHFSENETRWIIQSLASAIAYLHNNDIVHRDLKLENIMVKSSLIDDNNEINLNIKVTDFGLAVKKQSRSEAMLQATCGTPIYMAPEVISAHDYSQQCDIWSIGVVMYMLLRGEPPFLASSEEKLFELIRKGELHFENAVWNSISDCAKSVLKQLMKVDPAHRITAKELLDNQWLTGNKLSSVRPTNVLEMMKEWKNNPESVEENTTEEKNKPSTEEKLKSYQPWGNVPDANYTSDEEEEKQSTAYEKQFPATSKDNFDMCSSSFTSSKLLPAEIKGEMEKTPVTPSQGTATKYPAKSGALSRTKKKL
Protocol: as §1

T1 sequence (Q96SB4 whole entry): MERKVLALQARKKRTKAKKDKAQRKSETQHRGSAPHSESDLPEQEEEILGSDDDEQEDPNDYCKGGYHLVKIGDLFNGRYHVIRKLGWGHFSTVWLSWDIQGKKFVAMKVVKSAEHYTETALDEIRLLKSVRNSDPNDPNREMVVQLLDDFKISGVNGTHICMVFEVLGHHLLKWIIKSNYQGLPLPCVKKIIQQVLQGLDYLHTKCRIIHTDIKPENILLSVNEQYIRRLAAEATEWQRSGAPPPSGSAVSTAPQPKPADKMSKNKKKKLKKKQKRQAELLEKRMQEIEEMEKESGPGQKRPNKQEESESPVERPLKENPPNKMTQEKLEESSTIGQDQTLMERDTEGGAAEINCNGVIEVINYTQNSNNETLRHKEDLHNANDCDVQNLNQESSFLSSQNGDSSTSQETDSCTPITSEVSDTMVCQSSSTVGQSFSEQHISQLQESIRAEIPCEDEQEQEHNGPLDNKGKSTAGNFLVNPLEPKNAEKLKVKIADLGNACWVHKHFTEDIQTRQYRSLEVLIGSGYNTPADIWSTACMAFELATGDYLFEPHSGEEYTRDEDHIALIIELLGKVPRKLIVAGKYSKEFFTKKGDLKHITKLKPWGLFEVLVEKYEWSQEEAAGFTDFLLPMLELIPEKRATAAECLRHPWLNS

| Compound | residual kinase activity (SRPK1; 0.3 µM) | residual kinase activity (CDK2/CycE1; 0.3 µM) | residual kinase activity (DYRK1B; 0.3 µM) | residual kinase activity (CAMK2D; 0.3 µM) | residual kinase activity (MEKK2; 0.3 µM) | residual kinase activity (CDK4/CycD2; 0.3 µM) | residual kinase activity (TAOK2; 0.3 µM) | residual kinase activity (MST4; 0.3 µM) | residual kinase activity (JAK1; 0.3 µM) | residual kinase activity (RPS6KA1; 0.3 µM) | residual kinase activity (STK33; 0.3 µM) | other results |
| --- | --- | --- | --- | --- | --- | --- | --- | --- | --- | --- | --- | --- |
| COc1ccnc2[nH]cc(-c3cc(N)nc(N)c3)c12 [meriolin 16] | 99 % of control | 0 % of control | 0 % of control | 64 % of control | 91 % of control | 34 % of control | 89 % of control | 81 % of control | 86 % of control | 22 % of control | 43 % of control | residual kinase activity (SRPK1; 0.03 µM): 108 % of control; residual kinase activity (CDK2/CycE1; 0.03 µM): 16 % of control; residual kinase activity (DYRK1B; 0.03 µM): 8 % of control; residual kinase activity (CAMK2D; 0.03 µM): 99 % of control; residual kinase activity (MEKK2; 0.03 µM): 95 % of control; residual kinase activity (CDK4/CycD2; 0.03 µM): 81 % of control; residual kinase activity (TAOK2; 0.03 µM): 107 % of control; residual kinase activity (MST4; 0.03 µM): 78 % of control; residual kinase activity (JAK1; 0.03 µM): 78 % of control; residual kinase activity (RPS6KA1; 0.03 µM): 46 % of control; residual kinase activity (STK33; 0.03 µM): 73 % of control |
| c1ccc(CNc2cc(-c3c[nH]c4ncccc34)ccn2)cc1 [meriolin 36] | 110 % of control | 1 % of control | 7 % of control | 16 % of control | 66 % of control | 21 % of control | 60 % of control | 52 % of control | 58 % of control | 20 % of control | 41 % of control | residual kinase activity (SRPK1; 3 µM): 70 % of control; residual kinase activity (CDK2/CycE1; 3 µM): 1 % of control; residual kinase activity (DYRK1B; 3 µM): 0 % of control; residual kinase activity (CAMK2D; 3 µM): 1 % of control; residual kinase activity (MEKK2; 3 µM): 18 % of control; residual kinase activity (CDK4/CycD2; 3 µM): 3 % of control; residual kinase activity (TAOK2; 3 µM): 19 % of control; residual kinase activity (MST4; 3 µM): 12 % of control; residual kinase activity (JAK1; 3 µM): 25 % of control; residual kinase activity (RPS6KA1; 3 µM): 10 % of control; residual kinase activity (STK33; 3 µM): 14 % of control |
